Counter-ions that a name gives are not always drawn.
Columns and labels:
[1] = Pilot test: blood SAMe level and knee pain in a subject with osteoarthritis; type: in vivo, human
Text: As a pilot test, a subject with osteoarthritis had blood SAMe levels measured while taking SAMe and then while taking a betaine formulation. […] On this level of SAMe ingestion for three months, their blood SAMe level was 4.9 (the normal range for this lab is 4.2-8.2). At this time, SAMe was discontinued and they started a methylation formula with one gram of laser treated betaine plus laser treated metabolic cofactors. The betaine and metabolic co-factors were in the same ratios as in the double blind clinical study formula to be described below.
In particular, the dual effect of raising SAMe while reducing homocysteine would be expected to preserve and improve the condition of DNA methylation, as SAMe is the exclusive methyl group donor for DNA methylation.

[2] = cited from earlier work
murine macrophages = experiment: Nitrite (nitric oxide) production by LPS-stimulated murine macrophages given arginine samples; type: cell-based; conditions: arginine 120 mcg/ml, LPS 1 ng/ml, 24 hours; for Mean O.D. ± S.D. (optical density at 540 nm, a measure of nitrite concentration): 12 wells
Method: Paracelsian in Ithaca, N.Y., an outside independent lab, performed the following bioassays. Each arginine sample was added to 12 wells of murine macrophages to achieve a concentration of 120 mcg/ml. This is the estimated serum concentration for a 70 Kg person after ingesting a 6-gram serving of arginine, a level observed in numerous clinical studies to be associated with a wide range of physiologic benefits. LPS at 1 ng/ml was added to each well and the cells were incubated for 24 hours. The nitrite concentration in each well's supernatant was determined 24 hours after initiation of treatment as a relative measure of nitric oxide production.
The results are listed in order of relative nitrite production, from greatest to least. The first column is the Arg #, the second the mean plus or minus the standard deviation of the optical density measurement at 540 nm, a measure of nitrite concentration, and the third column the relative production of nitrites expressed in micrograms per ml as determined from optical density.

[3] = X-ray crystallography of control vs laser treated L-arginine hydrochloride; type: physicochemical; conditions: crystallized from deionized water by slow evaporation at room temperature
Method: Each sample was dissolved in 0.50 grams of deionized water. The control sample was crystallized by slow evaporation at room temperature over 24 hours. The average room temperature was approximately 26 degrees Centigrade. The average ambient humidity was approximately 33%.
The treated sample was crystallized under the same conditions with the addition of pulsed modulated energy at 532 nm as described for Arg #1 in Example 2 above. The beam was passed through the center of the meniscus of solution in the container.
Crystals from the control and treated samples were selected for further study. Selected crystals all had dimensions of approximately 0.5 mm on a side or less as per the latest standards in the art. The crystal structures were solved using a SMART X-ray diffraction analytical device.

[4] = X-ray crystallography of control vs laser treated betaine hydrochloride; type: physicochemical; conditions: crystals from deionized water
Method: The control and treated betaine hydrochloride samples shown in FIGS. 5A, 5B, 5C, 5D, and 5E were prepared by dissolving 0.6 grams of betaine hydrochloride in 3.0 grams of deionized water and placing the solutions thus prepared in 10×35 mm Petri dishes. Crystallization was done in open containers by slow evaporation at room temperature, a procedure often used in the art of crystallography. Ambient humidity was maintained at or below 30 percent with laboratory dehumidifiers. The treated betaine hydrochloride was irradiated with a 670 nm continuous wave diode laser modulated at 10 MHz with a primary beam power of 2.7 milliwatts that was phase conjugated to 1.35 milliwatts. The 5 mm diameter beam was passed through the middle of fluid meniscus of the treated solution during the entire crystallization process. The control untreated betaine hydrochloride was prepared under the same conditions, except that it was not irradiated with the sparse constructive node generating laser system.
X-ray crystallography was performed using a SMART device made by Siemens. FIGS. 5C and 5D show the intermolecular hydrogen bonding of control versus laser treated betaine hydrochloride, respectively. […]

[5] = Case report: lupus patient on the laser treated methylation formula; type: in vivo, human; conditions: before entry, only treatment
Text: The exemplary patient had suffered with relapsing lupus for several years. At the time of entry into the methylation formula studies of EXAMPLE 6, they had experienced a relapse of severe disease for several months.
Their disease was characterized by exquisitely tender blistering and ulcerating lesions on their hands and feet that made it difficult to walk or open a cabinet door without severe pain. Their skin was pallid, they were extremely fatigued with a chronic low energy state, and had suffered extensive hair loss. Their sedimentation rate, a marker for systemic inflammation, was highly elevated at 99, whereas a normal level would be 0-30. […] They declined the use of corticosteroids due to severe treatment side effects during a prior relapse.
The subject was randomized to the placebo control group and for 3 months had no improvement in condition. In the second phase of the study, they were placed on a high dose of the methylation formula of 6 grams of laser treated betaine plus cofactors daily. […]
The subject continued on a lower dose of the laser treated methylation formula for 5 more months, reduced to 1-2 grams of the laser treated betaine plus cofactors. […] At the end of fifth month of lower dose treatment, their sedimentation rate had dropped to the very low normal value of 1, the lowest level ever recorded for them.

[6] = animal studies; cited from earlier work
[7] = betaine 9 grams daily plus vitamin B12, a liver extract and a creatine precursor; placebo 25%; cited from earlier work

## C[S+](CC[C@H](N)C(=O)[O-])C[C@H]1O[C@@H](n2cnc3c(N)ncnc32)[C@H](O)[C@@H]1O (stereo partly drawn) [SAMe, S-adenosyl-methionine]
[1]; 800 mg of SAMe daily for three months, normal range 4.2-8.2
  blood SAMe level: 4.9
[1]; SAMe 800 mg daily, formula with one gram laser treated betaine for one month
  knee pain: moderate degree of relief
[2]; 1600 mg per day
  anti-depressant effects: comparable to tricyclic anti-depressant drugs
[2]; tricyclic medications 4-6 weeks
  time to anti-depressant effects: within one week

## N=C(N)NCCC[C@H](N)C(=O)O [Arg #1, L-arginine]
Murine macrophages
  nitric oxide byproducts produced compared with control untreated Arg #4: statistically significantly less
  Mean O.D. ± S.D. (optical density at 540 nm, a measure of nitrite concentration): .215 ± .007

## Cl.N=C(N)NCCC[C@H](N)C(=O)O [laser treated L-arginine hydrochloride, L-arginine hydrochloride]
[3]
  crystal form / water in the crystal lattice: free of water in the crystal lattice

## Cl.N=C(N)NCCC[C@H](N)C(=O)O [control L-arginine hydrochloride, L-arginine hydrochloride]
[3]
  crystal form / water in the crystal lattice: monohydrated crystal

## C[N+](C)(C)CC(=O)O [treated betaine hydrochloride, betaine hydrochloride]
[4]
  intermolecular hydrogen bonds per molecule: 3

## N=C(N)NCCC[C@H](N)C(=O)O [Arg #3, L-arginine]
Murine macrophages
  nitric oxide byproducts produced compared with control untreated Arg #4: statistically significantly more
  Mean O.D. ± S.D. (optical density at 540 nm, a measure of nitrite concentration): .232 ± .010

## CCN(CCO)CCCC(C)Nc1ccnc2cc(Cl)ccc12 (stereo not drawn) [Plaquenil]
[5]
  relief of lupus symptoms: did little to relieve their symptoms

## C[N+](C)(C)CC(=O)O [betaine, N,N,N-trimethylglycine]
[6]
  liver SAMe levels: up to fourfold
[7]
  mortality after one year: no mortality

## N=C(N)NCCC[C@H](N)C(=O)O [Arg #2, L-arginine]
Murine macrophages
  nitric oxide byproducts produced compared with control untreated Arg #4: statistically significantly less
  Mean O.D. ± S.D. (optical density at 540 nm, a measure of nitrite concentration): .219 ± .008

## N=C(N)NCCC[C@H](N)C(=O)O [Arg #4, L-arginine]
Murine macrophages
  Mean O.D. ± S.D. (optical density at 540 nm, a measure of nitrite concentration): .224 ± .006

## C[N+](C)(C)CC(=O)O [untreated betaine hydrochloride, betaine hydrochloride]
[4]
  intermolecular hydrogen bonds per molecule: 4

Reference: patent US20040230257A1, “Enhanced bioavailability of nutrients, pharmaceutical agents, and other bioactive substances through laser resonant homogenization or modification of molecular shape or crystalline form” (priority 2003, published 2004)
